Consider four compounds from ChEMBL document CHEMBL4339234, “Synthesis and in vitro biological evaluation of new P2X7R radioligands [11C]halo-GSK1482160 analogs” (Bioorg Med Chem Lett, 2019).

Usually pKi stands for the negative decadic logarithm of the Ki, by convention in mol/L. The pIC50 is the IC50 on a negative log10 scale, so that one unit is a factor of ten.

Test [1] concerns the target T1, P2X purinoceptor 7 (Homo sapiens, UniProt Q99572).
T1 sequence (Q99572 whole entry): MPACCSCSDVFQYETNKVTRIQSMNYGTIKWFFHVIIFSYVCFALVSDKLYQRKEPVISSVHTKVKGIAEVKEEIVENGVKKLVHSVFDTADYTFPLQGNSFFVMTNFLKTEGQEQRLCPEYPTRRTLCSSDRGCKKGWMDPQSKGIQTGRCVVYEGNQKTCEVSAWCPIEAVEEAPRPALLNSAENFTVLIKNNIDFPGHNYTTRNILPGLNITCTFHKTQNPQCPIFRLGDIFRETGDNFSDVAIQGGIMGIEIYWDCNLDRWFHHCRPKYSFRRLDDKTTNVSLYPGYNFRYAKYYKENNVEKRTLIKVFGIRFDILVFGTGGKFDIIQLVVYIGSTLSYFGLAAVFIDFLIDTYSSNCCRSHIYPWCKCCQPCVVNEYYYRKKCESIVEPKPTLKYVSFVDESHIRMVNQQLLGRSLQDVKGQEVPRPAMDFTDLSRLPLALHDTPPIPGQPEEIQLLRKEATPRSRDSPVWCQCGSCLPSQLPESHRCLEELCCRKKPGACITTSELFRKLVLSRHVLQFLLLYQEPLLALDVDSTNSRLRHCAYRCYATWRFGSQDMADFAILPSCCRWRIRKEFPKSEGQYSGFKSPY
Description: Competitive displacement of [11C]GSK1482160 from human recombinant P2X7 receptor expressed in HEK293 cell membranes incubated for 30 mins by scintillation counting method based radioligand competitive binding assay. In general terms: In a radioligand displacement assay an active substance lowers the binding of a labelled ligand.

For test [2], the target named is T1, P2X purinoceptor 7. The test is described as follows: Displacement of [11C]GSK1482160 from human recombinant P2X7 receptor expressed in HEK293 cell membranes incubated for 30 mins by scintillation counting method based radioligand competitive binding assay.

pIC50, pKi: −log10 of the molar value.

Consider `CN1C(=O)CC[C@H]1C(=O)NCc1cccc(C(F)(F)F)c1F`, for which the pKi in test [1] is 7.27. Further, in test [2], the pIC50 is 6.82. Turning to `CN1C(=O)CC[C@H]1C(=O)NCc1cccc(C(F)(F)F)c1Br`, the pKi in test [1] was 8.60. The pIC50 in test [2] was 8.15. As for `CN1C(=O)CC[C@H]1C(=O)NCc1cccc(C(F)(F)F)c1I`, in test [1], the pKi is 8.72. Besides, the pIC50 in test [2] is 8.28.

On to `CN1C(=O)CC[C@H]1C(=O)NCc1cccc(C(F)(F)F)c1Cl` [GSK1482160], for which, in test [1], the pKi is 8.51.
